Results: ChEMBL document CHEMBL1649192, “Dynamics of malaria drug resistance patterns in the Amazon basin region following changes in Peruvian national treatment policy for uncomplicated malaria” (Antimicrob Agents Chemother, 2009)

Tests used:
Plasmodium falciparum [1] = assay: Antimicrobial activity against Plasmodium falciparum harboring SVMNT genotype after 72 hrs by SYBR green I assay
Plasmodium falciparum [2] = assay: Antimicrobial activity against Plasmodium falciparum harboring CVMNT genotype after 72 hrs by SYBR green I assay
Plasmodium falciparum [3] = assay: Antimicrobial activity against Plasmodium falciparum harboring NGFSDD genotype after 72 hrs by SYBR green I assay

| Compound | IC50 (Plasmodium falciparum [1]) [nM] | IC50 (Plasmodium falciparum [2]) [nM] | IC50 (Plasmodium falciparum [3]) [nM] |
| --- | --- | --- | --- |
| C=C[C@H]1CN2CC[C@H]1C[C@H]2[C@H](O)c1ccnc2ccc(OC)cc12 [QUININE] | 70 | 66 | – |
| OC(c1cc(C(F)(F)F)nc2c(C(F)(F)F)cccc12)C1CCCCN1 (stereo not drawn) [MEFLOQUINE] | – | – | 21 |
